Results taken from ChEMBL document CHEMBL1833795, “Discovery of potent, metabolically stable purine CRF-1 antagonists with differentiated binding kinetic profiles” (Bioorg Med Chem Lett, 2011).
pKd, pKi: −log10 of the molar value.

Legend:
[1] = target: T1, Corticotropin-releasing factor receptor 1 (Homo sapiens, UniProt P34998); assay: Antagonist activity at recombinant human CRF1 receptor expressed in CHO cells assessed as inhibition of CRF-induced cAMP formation; type: functional, cell-based
T1 sequence (P34998 whole entry): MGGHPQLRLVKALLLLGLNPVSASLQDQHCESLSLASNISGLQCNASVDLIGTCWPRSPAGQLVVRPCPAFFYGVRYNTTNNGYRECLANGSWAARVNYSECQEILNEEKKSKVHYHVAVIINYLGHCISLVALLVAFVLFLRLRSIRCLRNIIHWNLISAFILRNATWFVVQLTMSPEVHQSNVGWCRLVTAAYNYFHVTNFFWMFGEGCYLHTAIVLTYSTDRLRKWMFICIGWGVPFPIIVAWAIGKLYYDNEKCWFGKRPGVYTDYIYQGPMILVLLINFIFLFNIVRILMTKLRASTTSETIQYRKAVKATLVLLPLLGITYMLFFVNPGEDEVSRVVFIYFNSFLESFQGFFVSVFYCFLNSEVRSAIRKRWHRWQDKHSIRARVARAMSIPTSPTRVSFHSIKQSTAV

[2] = target: T2, Corticotropin-releasing factor receptor 1 (Homo sapiens) (UniProt P34998); conditions: CHO
T2 sequence (whole entry): T1 sequence (P34998 whole entry)
Description: Antagonist activity at recombinant human CRF1 receptor expressed in CHO cells assessed as dissociation half life

[3] = system: Liver microsomes; assay: Intrinsic clearance in rat liver microsomes assessed per mg of protein; type: ADME, Microsome
[4] = system: Liver microsomes; assay: Intrinsic clearance in human liver microsomes assessed per mg of protein; type: ADME, Microsome
[5] = target: T1, Corticotropin-releasing factor receptor 1; assay: Binding affinity to recombinant human CRF1 receptor expressed in CHO cells; type: cell-based
[6] = Volume of distribution at steady state in rat at 0.1 mg/kg; type: ADME, organism-based; set-up: dose 0.1 mg/kg; conditions: in vivo, read-out: Vdss
[7] = Half life in rat at 0.1 mg/kg; type: ADME, organism-based; set-up: dose 0.1 mg/kg; conditions: in vivo
[8] = Oral bioavailability in rat at 8 mg/kg; type: ADME, organism-based; conditions: in vivo
[9] = Clearance in rat at 0.1 mg/kg; type: ADME, organism-based; set-up: dose 0.1 mg/kg; conditions: in vivo

Compound | pKi [1] | T1/2 [2] [h] | clearance [3] [µL/min/mg] | clearance [4] [µL/min/mg] | pKd [5] | Vd [6] [L/kg] | half-life [7] [h] | bioavailability [8] [%] | clearance [9] [mL/min/kg]
COc1ccc(-n2c(C3CC(F)(F)C3)nc3c(NC(C4CC4)C4CC4)nc(C)nc32)cc1 | 6.58 | – | – | – | – | – | – | – | –
COc1ccc(-n2c(C3CCCO3)nc3c(NC(C4CC4)C4CC4)nc(C)nc32)cc1 (racemic) | 6.06 | – | – | – | – | – | – | – | –
CCCN(CCOC)c1nc(C)nc2c1c(C)nn2-c1ccc(OC)cc1C | – | 0.3 | 23 | 172 | 7.85 | – | – | – | –
Cc1nc(NC(C2CC2)C2CC2)c2nc(C)n(-c3ccc(F)cc3)c2n1 | 7.04 | – | < 8.5 | 15 | – | – | – | – | –
COc1ccc(-n2c(C)nc3c(NC(C4CC4)C4CC4)nc(C)nc32)c(Cl)c1 | 7.92 | – | – | – | – | – | – | – | –
COCc1nc2c(NC(C3CC3)C3CC3)nc(C)nc2n1-c1ccc(OC)cc1 | 6.80 | – | – | – | – | – | – | – | –
COc1ccc(-n2c(C)nc3c(NC(C4CC4)C4CC4)nc(C)nc32)c(C)c1 | 7.85 | – | 37 | 10 | – | – | – | – | –
COc1ccc(-n2ncc3c(NC(C4CC4)C4CC4)nc(C)nc32)c(C)c1 | 7.49 | – | 25 | < 11 | – | – | – | – | –
Cc1nc(NC(C2CC2)C2CC2)c2nc(C)n(-c3ccc(OC(F)(F)F)cc3)c2n1 | 8.05 | – | 27 | 17 | – | – | – | – | –
COc1ccc(-n2cnc3c(NC(C4CC4)C4CC4)nc(C)nc32)c(C)c1 | 7.33 | – | 48 | 21 | – | – | – | – | –
Cc1nc(NC(C2CC2)C2CC2)c2nc(C)n(-c3ccc(Cl)cc3)c2n1 | 7.96 | – | < 8.5 | 28 | – | – | – | – | –
COc1ccc(-n2c(CC(C)C)nc3c(NC(C4CC4)C4CC4)nc(C)nc32)cc1 | 6.22 | – | – | – | – | – | – | – | –
COc1ccc(-n2c(CC3CC3)nc3c(NC(C4CC4)C4CC4)nc(C)nc32)cc1 | 6.51 | – | – | – | – | – | – | – | –
CCCN(CCC)c1cc(C)nc2c(-c3cnc(N(C)C)cc3C)c(C)nn12 | – | 12.8 | – | – | – | – | – | – | –
COc1cc(OC(F)F)ccc1-n1c(C)nc2c(NC(C3CC3)C3CC3)nc(C)nc21 | 9.54 | 10.7 | 38 | 19 | 9.54 | 8.2 | 10 | 52 | 9
COc1ccc(-n2c(C)nc3c(NC(C4CC4)C4CC4)nc(C)nc32)cc1 | 7.72 | 0.5 | 20 | < 10 | 7.92 | 2 | 2.7 | – | 4
Cc1nc(NC(C2CC2)C2CC2)c2nc(C)n(-c3ccc(C#N)cc3)c2n1 | 7.21 | – | 22 | 16 | – | – | – | – | –
CCC(CC)Nc1cc(C)nc2c(-c3ccc(OC)cc3C)c(C)nn12 | 8.82 | 5.5 | – | – | 9.55 | – | – | – | –
CCOc1ccc(-n2c(C)nc3c(NC(C4CC4)C4CC4)nc(C)nc32)cc1 | 7.70 | – | 29 | 16 | – | – | – | – | –
Cc1nc(NC(C2CC2)C2CC2)c2nc(C)n(-c3ccc(OC(F)F)cc3F)c2n1 | 8.15 | – | – | – | – | – | – | – | –
Cc1nc(NC(C2CC2)C2CC2)c2nc(C)n(-c3ccc(S(C)(=O)=O)cc3)c2n1 | 6.85 | – | – | < 9 | – | – | – | – | –
Cc1nc(NC(C2CC2)C2CC2)c2nc(C)n(-c3ccc(OC(F)F)cc3Cl)c2n1 | 9.43 | 6.2 | 51 | 18 | 9.43 | 4.5 | 6.4 | – | 8
Cc1nc(NC(C2CC2)C2CC2)c2nc(C)n(-c3ccc(OC(F)F)cc3)c2n1 | 8.30 | 1 | 17 | 15 | 8.52 | 2 | 11 | – | 3
